This series is described as follows: Cytotoxicity activity against human HepG2 cells assessed by CellTiter-Glo luminescent cell viability assay. The note with it: HepG2 cells, read-out: IC50 relative. The format is toxicity, cell-based. Also noted: assay stage confirmatory assay, source tissue liver. For orientation: In ATP-based viability assays light output follows the ATP content of the culture.

We go through 83 compounds from ChEMBL document CHEMBL5303711, “ECBD screening data for assay EOS300108” (2023).

SMILES strings stand for the structures. The source made the active and inactive calls. No rule for the calls is given here.

With `COc1ccc(-c2noc(N3CCC(C(=O)N4CCN(c5ccccc5OC)CC4)CC3)n2)cc1`, the CC50 is 8 µM (active).

As to `COc1ccc(CNC(=O)C2CCN(S(=O)(=O)c3ccc4c(c3)CC(C)N4C(C)=O)CC2)cc1` (stereo not drawn), the CC50 was 29.7 µM (inactive).

Take `CC(=O)N1CCCc2cc(S(=O)(=O)N3CCCC(C(=O)N4CCN(c5ccccc5)CC4)C3)ccc21` (stereo not drawn): the CC50 is 12.7 µM (inactive).

`CCOc1ccc(S(=O)(=O)Nc2ccc3c(c2)N(C(C)=O)CCC3)cc1`: the CC50 is 6.4 µM (active).

For the compound `CCc1ccc(-c2cc3c(=O)n(CC(=O)NCCCN4CCN(CC)CC4)nc(C)n3n2)cc1`, the CC50 was 25.5 µM (inactive).

With `CCN(CC)CCNC(=O)C1CCN(c2nn3cc(-c4ccc(F)cc4)nc3s2)CC1`, the CC50 is 2 µM (active).

For the compound `CCS(=O)(=O)N1CCc2ccc(NC(=O)Nc3cccc(C)c3)cc21`, the CC50 was 2.2 µM (active).

In the case of `CCS(=O)(=O)N1CCc2ccc(NC(=O)Nc3cccc(F)c3)cc21`, the CC50 is 5.2 µM (active).

On to `Cc1cccc(NC(=O)C2CCN(S(=O)(=O)c3cn(C(C)C)cn3)CC2)c1`, for which the CC50 was 8.8 µM (inactive).

For the compound `COc1ccc(-c2cc3c4nn(CC(=O)Nc5ccccc5)c(=O)n4ccn3n2)cc1`, the CC50 is 50 µM (inactive).

`COc1ccc(-c2cc3c4nn(CC(=O)Nc5cccc(OC)c5)c(=O)n4ccn3n2)cc1`: the CC50 was 50 µM (inactive).

`COc1cccc(N2CCN(C(=O)C3CCN(c4nc5cccnc5n(C)c4=O)CC3)CC2)c1`: the CC50 is 4.4 µM (active).

`CCN1CCN(c2cc3c(cc2S(=O)(=O)N2CCCCCC2)C(=O)Nc2ccccc2O3)CC1`: the CC50 was 10.9 µM (active).

Regarding `Cc1nc[nH]c1CNCCCc1ccc(C(C)C)cc1`, the CC50 was 13.6 µM (inactive).

Take `CC(=O)Nc1ccc(Nc2nc(C)cc(N3CCCC3)n2)cc1`: the CC50 was 10.2 µM (active).

For `CC(=O)N1c2ccc(S(=O)(=O)N3CCOCC3)cc2CC1C(=O)NCCN1CCCCCC1` (stereo not drawn), the CC50 is 50 µM (inactive).

As to `CCn1c(=O)c(C(=O)Nc2cccc(OC)c2)c(O)c2ccccc21`, the CC50 was 2.4 µM (inactive).

Regarding `COc1ccc(-c2cn3nc(N4CCCC(C(=O)NCCN5CCCC5)C4)sc3n2)cc1` (stereo not drawn), the CC50 was 5.1 µM (active).

Take `COc1ccc(OCC(=O)N2CCN(S(=O)(=O)c3ccc4c(c3)NC(=O)C(C)O4)CC2)cc1` (stereo not drawn): the CC50 was 5.8 µM (active).

Consider `O=C(NCCN1CCCC1)C1CCN(c2nn3cc(-c4ccc(F)cc4)nc3s2)CC1`, for which the CC50 was 2.7 µM (active).

For the compound `CCN(CC)CCCNC(=O)C1CCN(c2nc3ccccc3n(Cc3ccccc3)c2=O)CC1`, the CC50 is 6.4 µM (active).

Consider `Cc1cccc(Cl)c1OCCN(C)CC1(C)COC1`, for which the CC50 is 50 µM (inactive).

With `Cc1cccc(NC(=O)C2CCN(S(=O)(=O)c3ccc4c(c3)CC(C)N4C(=O)C3CC3)CC2)n1` (stereo not drawn), the CC50 is 1.7 µM (active).

Regarding `CCOc1ccccc1NC(=O)COc1cccc2c(=O)n(C)ccc12`, the CC50 was 1.4 µM (inactive).

Regarding `Cc1ccc(-c2cc3c(=O)n(CC#N)ccn3n2)cc1`, the CC50 is 0.3 µM (active).

For `CN1CCCC(CNc2ccc3cc(Cl)ccc3n2)C1` (stereo not drawn), the CC50 is 7.9 µM (active).

On to `Cc1cc(C)cc(C(=O)N2CCN(c3cc(=O)n(C(C)C)c(=O)n3C(C)C)CC2)c1`, for which the CC50 is 3.5 µM (active).

`CCOc1ccc(-n2ccnc(NCc3ccc(OC)c(OC)c3)c2=O)cc1`: the CC50 was 5.1 µM (active).

Turning to `Cc1ccc(-c2cn3nc(N4CCC(C(=O)NCCCN5CCOCC5)CC4)sc3n2)cc1`, the CC50 was 5.1 µM (active).

As for `CCS(=O)(=O)N1CCc2ccc(NC(=O)Nc3ccc(Cl)cc3)cc21`, the CC50 was 14.3 µM (inactive).

On to `CCCCC(=O)Nc1ccc(Nc2nc(C)cc(N3CCOCC3)n2)cc1`, for which the CC50 is 10.1 µM (active).

As to `CC(=O)N1c2ccc(S(=O)(=O)N3CCC(C(=O)NCc4cccs4)CC3)cc2CC1C` (stereo not drawn), the CC50 was 33.9 µM (inactive).

For the compound `CCc1onc(C)c1C1CCCN1Cc1ccc(OC)c(O)c1` (stereo not drawn), the CC50 is 6.1 µM (active).

In the case of `Cc1cc(C)cc(NC(=O)N(C)CCc2scnc2C)c1`, the CC50 is 50 µM (inactive).

Regarding `COc1ccc(C)cc1NC(=O)N1CCC(n2cnc3cc(F)ccc3c2=O)CC1`, the CC50 was 9.9 µM (active).

For the compound `Cc1cc2c(cc1S(=O)(=O)Nc1cccc(F)c1)OCC(=O)N2`, the CC50 was 28.3 µM (inactive).

Turning to `CC(=O)N1CCCSc2ccc(S(=O)(=O)N3CCN(c4ccc(F)cc4)CC3)cc21`, the CC50 is 7.5 µM (active).

Consider `COc1cc(-c2cc(C)no2)ccc1S(=O)(=O)Nc1cc(OC)c(OC)c(OC)c1`, for which the CC50 is 4.5 µM (active).

With `CCS(=O)(=O)N1CCc2ccc(NC(=O)Nc3cccc(Cl)c3)cc21`, the CC50 is 2.6 µM (active).

With `CCCCOc1cccc(C(=O)Nc2nc3c(s2)CN(C)CC3)c1`, the CC50 was 7.9 µM (active).

In the case of `CCCS(=O)(=O)N1CCc2ccc(NC(=O)Nc3cccc(OC)c3)cc21`, the CC50 was 4.9 µM (active).

As to `CCc1ccc(NC(=O)Nc2ccc3c(c2)N(S(=O)(=O)CC)CC3)cc1`, the CC50 was 2.4 µM (active).

With `CCN1CCN(C(=O)C2CCCN(c3nn4cc(-c5ccc(OC)cc5)nc4s3)C2)CC1` (stereo not drawn), the CC50 is 12.8 µM (active).

For the compound `CC1Oc2ccc(S(=O)(=O)N3CCN(C(=O)c4ccc(Br)cc4)CC3)cc2NC1=O` (stereo not drawn), the CC50 was 4 µM (active).

Regarding `CCN(CC)CCNC(=O)C1CCN(c2nn3cc(-c4ccc(OC)cc4)nc3s2)CC1`, the CC50 is 2.7 µM (active).

Consider `CC(NC(=O)N(C)CC1CCOCC1)c1ccccc1C(F)(F)F` (stereo not drawn), for which the CC50 was 50 µM (inactive).

As for `CC1Oc2ccc(S(=O)(=O)N3CCN(C(=O)c4ccc(Cl)cc4)CC3)cc2NC1=O` (stereo not drawn), the CC50 was 6.6 µM (active).

`O=C(NCCCN1CCOCC1)C1CCN(c2nn3cc(-c4ccc(F)cc4)nc3s2)CC1`: the CC50 is 5.8 µM (active).

Turning to `CCCC(=O)Nc1ccc(Nc2nc(C)cc(N(CC)CC)n2)cc1`, the CC50 was 4.2 µM (active).

In the case of `CCN(CC)CCCNC(=O)C1CCN(c2ncc(-c3ccccc3)cn2)CC1`, the CC50 is 9.7 µM (active).

As to `COCC(=O)Nc1ccc(Nc2nc(C)cc(N3CCCC3)n2)cc1`, the CC50 is 3.6 µM (active).

As to `CCNc1cc(C)nc(Nc2ccc(NC(=O)CC(C)C)cc2)n1`, the CC50 was 11 µM (active).

Turning to `CCc1ccc(-c2cc3c(=O)n(CC(=O)NCCN(CC)CC)ncn3n2)cc1`, the CC50 was 6.2 µM (active).

As to `O=C(CN1C(=O)COc2ccc(S(=O)(=O)N3CCCC3)cc21)N1CCN(Cc2ccccc2)CC1`, the CC50 was 50 µM (inactive).

Turning to `CC(C)Cn1c(=O)c2sccc2n2c(=O)n(CC(=O)Nc3ccc(F)cc3)nc12`, the CC50 was 50 µM (inactive).

With `CCCS(=O)(=O)N1CCc2ccc(NC(=O)Nc3ccc(OCC)cc3)cc21`, the CC50 was 50 µM (inactive).

Regarding `CS(=O)(=O)N1CCc2ccc(NC(=O)Nc3ccc(Br)cc3)cc21`, the CC50 was 3.2 µM (inactive).

For `Cc1cccnc1C(NC(=O)CCOc1ccccc1)C1CC1` (stereo not drawn), the CC50 is 36.5 µM (inactive).

On to `Cc1cc(N(C)C)nc(N2CCN(C(=O)c3ccc(C(C)(C)C)cc3)CC2)n1`, for which the CC50 is 5.1 µM (active).

In the case of `CCc1ccc(-c2cc3c(=O)n(CC(=O)NCCCN4CCCC4)nc(C)n3n2)cc1`, the CC50 was 11.4 µM (active).

For `O=C1Nc2cc(Cl)ccc2Oc2ccc(S(=O)(=O)N3CCCC3)cc21`, the CC50 was 6.4 µM (active).

As to `O=C(CN1C(=O)COc2ccc(S(=O)(=O)N3CCCCCC3)cc21)NCc1ccccc1`, the CC50 was 50 µM (inactive).

As to `CCN1CCN(CCCNC(=O)c2cccc(NC(=O)c3nnc(COc4ccccc4)s3)c2)CC1`, the CC50 was 6.9 µM (active).

Turning to `Cc1ccc(S(=O)(=O)NCCCNC(=O)c2c3c(nn2C)CCCC3)cc1`, the CC50 was 4.6 µM (active).

In the case of `CCN(CC)CCCNC(=O)C1CCN(c2nn3cc(-c4ccc(OC)cc4)nc3s2)CC1`, the CC50 is 3 µM (active).

As for `COc1ccc2c(c1)C=C(C(=O)NCc1ccc(OC)c(OC)c1)CO2`, the CC50 was 6.3 µM (active).

Take `CC(=O)N1c2ccc(S(=O)(=O)N3CCC(C(=O)N4CC=C(c5ccccc5)CC4)CC3)cc2CC1C` (stereo not drawn): the CC50 was 6.8 µM (active).

As to `CCN(CC)CCNC(=O)C1CCCN(c2ncc(-c3ccc(C)cc3)cn2)C1` (stereo not drawn), the CC50 is 4.3 µM (active).

For the compound `O=C(Nc1ccncc1)c1cccn(Cc2cccc(F)c2)c1=O`, the CC50 is 6.1 µM (active).

`CCCc1cc(C(=O)NCC2CN(C3CCN(C4CCC4)CC3)C(=O)CO2)n(C)n1` (stereo not drawn): the CC50 was 50 µM (inactive).

Turning to `O=C(NCCN1CCOCC1)C1CCN(c2nn3cc(-c4ccc(F)cc4)nc3s2)CC1`, the CC50 is 10.5 µM (active).

Consider `CC(=O)N1CCSc2ccc(S(=O)(=O)N3CCN(Cc4ccc5c(c4)OCO5)CC3)cc21`, for which the CC50 was 6.4 µM (active).

For the compound `O=C(c1csc(S(=O)(=O)N2CCC(C(=O)N3CCc4ccccc43)CC2)c1)N1CCCCCC1`, the CC50 was 10.6 µM (inactive).

`CCCS(=O)(=O)N1CCc2ccc(NC(=O)Nc3ccc(SC)cc3)cc21`: the CC50 was 18.2 µM (inactive).

Consider `COc1ccc(-c2cn3nc(N4CCC(C(=O)NCCCN5CCN(C)CC5)CC4)sc3n2)cc1`, for which the CC50 was 4.1 µM (active).

`COc1ccccc1NC(=O)N1CCC(n2cnc3ccc(C)cc3c2=O)CC1`: the CC50 is 3.6 µM (active).

Turning to `CCC(=O)Nc1ccc(Nc2nc(C)cc(N(CC)CC)n2)cc1`, the CC50 was 4.5 µM (active).

Regarding `Cc1ccc(Nc2nc(N3CCN(CCO)CC3)nc3c2cnn3C)cc1Cl`, the CC50 was 4.8 µM (active).

Turning to `CN1CCN(c2cc3c(cc2S(=O)(=O)N2CCCCCC2)C(=O)Nc2ccccc2O3)CC1`, the CC50 is 11.5 µM (active).

As for `Cc1nn2c(ncc3c(=O)n(CCN(C)C)ccc32)c1-c1ccc(Cl)cc1`, the CC50 was 4 µM (active).

For `CCc1nc(-c2cc(S(=O)(=O)N3CCCC(C(=O)N4CCC(C)CC4)C3)c(C)s2)no1` (stereo not drawn), the CC50 was 7.9 µM (active).

For `CCCC(=O)Nc1ccc(Nc2nc(C)cc(N3CCCC3)n2)cc1`, the CC50 was 5.7 µM (active).

Take `COc1cccc(Nc2nc(N3CCN(C)CC3)nc3c2cnn3C)c1`: the CC50 is 14 µM (inactive).
